logP data for 18 compounds are collected here from the OPERA property sets (Mansouri et al. 2018).

On to `COc1ccc(S(N)(=O)=O)c(NC(=O)C(C)C)c1`, for which the logP – broadly, the decadic logarithm of the partition coefficient of the neutral form, usually between octanol and water – amounted to 1.37.

On to `Cc1ccc(S(=O)(=O)NC(=O)C(C)C)c([N+](=O)[O-])c1`, for which the logP is 2.17.

`CCC(CC)C(=O)NS(=O)(=O)c1ccccc1[N+](=O)[O-]` registered a logP of 2.17.

Take `CCC(CC)C(=O)Nc1cc(C)ccc1S(N)(=O)=O`: the logP was found to be 2.13.

`CC(C)C(=O)NS(=O)(=O)c1ccccc1[N+](=O)[O-]`: the logP worked out at 1.72.

Compound `CCC(CC)C(=O)NS(=O)(=O)c1ccc(C)cc1[N+](=O)[O-]` came in with a logP of 2.67.

Compound `CCC(CC)C(=O)Nc1ccccc1S(N)(=O)=O` yielded a logP of 1.62.

Consider `CCC(CC)C(=O)NS(=O)(=O)c1ccccc1N`, for which the log partition coefficient (logP) came out at 1.64.

With `CCC(CC)C(=O)Nc1cc(C(F)(F)F)ccc1S(N)(=O)=O`, the logP stood at 3.06.

As for `CCC(CC)C(=O)Nc1cc(OC)ccc1S(N)(=O)=O`, the logP is 2.01.

With `CC(C)C(=O)Nc1cc(Cl)ccc1S(N)(=O)=O`, the logP came to 1.87.

`CCC(CC)C(=O)NS(=O)(=O)c1ccc(OC)cc1N` yielded a logP of 2.03.

For `CC(C)C(=O)NS(=O)(=O)c1ccccc1N`, the logP was 1.17.

Consider `Cc1ccc(S(=O)(=O)NC(=O)C(C)C)c(N)c1`, for which the logP stood at 1.65.

Compound `CC(C)C(=O)Nc1ccccc1S(N)(=O)=O` gave a log partition coefficient (logP) of 0.97.

For `CCC(CC)C(=O)NS(=O)(=O)c1cc([N+](=O)[O-])cc(C(F)(F)F)c1`, the logP came out at 3.57.

With `Cc1ccc(S(N)(=O)=O)c(NC(=O)C(C)C)c1`, the logP came out at 1.45.

Turning to `COc1ccc(S(=O)(=O)NC(=O)C(C)C)c(N)c1`, the lipophilicity (logP) came to 1.58.
